Data published in patent US20220228164A1, “ENGINEERED ANTIGEN PRESENTING CELLS” (Neogene Therapeutics B.V., priority 2021, published 2022).

Assays:
Type in all cases: cell-based, human
[1] = tested on: TCR-KO Jurkat T cells expressing the GCN1L1 TCR; assay: Peptide electroporation of BCL-6/BCL-xL-CD40L immortalized B cells, co-culture with TCR Jurkat T cells, CD69 (Examples 11, 12); conditions: for presentation of the GCN1L1 antigen after peptide electroporation (CD69+ of live cells): electroporated into BCL-6/BCL-xL-CD40L immortalized B cells
Source text: Immortalized primary human B cells that are electroporated with a polypeptide of a uniform length (25mer) will be efficiently processed and present T cell epitopes encoded within the polypeptide via the MHC class I pathway and activate T cells expressing an MHC class I restricted TCR specific for the T cell epitope encoded within the polypeptide. BCL-6/BCL-xL-CD40L immortalized B cells from a healthy donor were electroporated with short (10mer) (ALLETPSLLL, SEQ ID NO: 5) or long (25mer) ([…], SEQ ID NO: 6) peptides encoding the GCN1L1 mutated peptide or CMV mutated long peptide ([…], SEQ ID NO: 7), using a method known to the skilled artisan. Briefly, for each sample, 0.2e6 B cells were harvested and washed with PBS. After removal of all PBS, the dry pellet was resuspended in electroporation buffer (SF-buffer, Lonza) at a concentration of 25e6 cells per mL. Of this mixture, 20 μL per sample was added to a 96 well tissue-culture-plate that contains the appropriate amount of peptide resulting in the indicated peptide concentration. Cells were transferred to a 16-well electroporation strip (Lonza) and subsequently electroporated using the DN100 program (Lonza Amaxa). Post-electroporation, cells were rested for 10 minutes at 37° C. and transferred to a 96 well round bottom tissue-culture plate in a final volume of 200 μL of Complete B cell Medium (RPMI1640 medium supplemented with 10% (v/v) Fetal Calf Serum (FCS), 1% (v/v) Penicillin/Streptomycin (P/S), 1% (v/v) Sodium Pyruvate, 1% (v/v) Non-essential amino acids, 1% (v/v) Glutamax, 50 nM 2-Mercaptoethanol) and incubated for 0, 2, 4, 5, 6, 10 or 24 hrs at 37° C. The resting period post peptide electroporation allows for exogenous loading of the peptide onto the target cells in a parallel experimental condition. […] After 20 hours, cells were stained with antibodies directed against CD8 and CD69 and specific recognition by TCR td T cells was measured by CD69 upregulation on a flow cytometer. […]

[2] = tested on: TCR-KO Jurkat T cells expressing the CMV1 TCR; assay: as above; conditions: 25mer electroporated; MHC class I restricted TCR
Source text: Immortalized primary human B cells that are electroporated with a polypeptide of a uniform length (25mer) will be efficiently processed and present T cell epitopes encoded within the polypeptide via the MHC class I pathway and activate T cells expressing an MHC class I restricted TCR specific for the T cell epitope encoded within the polypeptide. BCL-6/BCL-xL-CD40L immortalized B cells from a healthy donor were electroporated with short (10mer) (ALLETPSLLL, SEQ ID NO: 5) or long (25mer) ([…], SEQ ID NO: 6) peptides encoding the GCN1L1 mutated peptide or CMV mutated long peptide ([…], SEQ ID NO: 7), using a method known to the skilled artisan. Briefly, for each sample, 0.2e6 B cells were harvested and washed with PBS. After removal of all PBS, the dry pellet was resuspended in electroporation buffer (SF-buffer, Lonza) at a concentration of 25e6 cells per mL. […] After 20 hours, cells were stained with antibodies directed against CD8 and CD69 and specific recognition by TCR td T cells was measured by CD69 upregulation on a flow cytometer.
A CMV epitope was electroporated or loaded onto BCL-6/BCL-xL/CD40L immortalized B cells. T cell activation was measured for various concentrations of peptide after 6, 10 or 24 hours of post-electroporation resting (FIG. 17A) or were loaded with peptide (FIG. 17B) for similar time-points. […]

[3] = tested on: Jurkat T cells expressing the class II restricted MAGE-A3 TCR; assay: Peptide electroporation of BCL-6/BCL-xL-CD40L immortalized B cells, co-culture with TCR Jurkat T cells, CD69 (Example 12); conditions: 25mer electroporated; MHC class II restricted TCR

## ALLETPSLLL [short GCN1L1 peptide, short (10mer) peptide encoding the GCN1L1 mutated peptide]
[1]
  presentation of the GCN1L1 antigen after peptide electroporation (CD69+ of live cells): efficient presentation

## WQAGILARNLVPMVATVQGQNLKYQ [long CMV1 peptide, CMV long (25mer) peptide]
[2]
  post-electroporation rest with which the peptide elicits a response (% CD69): ≥ 2 h

## FSWNVKAALLETPSLLLAKVGIALK [long GCN1L1 peptide, long (25mer) peptide encoding the GCN1L1 mutated peptide]
[1]; 25mer electroporated, MHC class I restricted TCR
  post-electroporation rest with which the peptide elicits a response (% CD69): ≥ 2 h
[1]
  presentation of the GCN1L1 antigen after peptide electroporation (CD69+ of live cells): efficient presentation

## ILGDPKKLLTQHFVQENYLEYRQVP [MAGEA3]
[3]
  post-electroporation rest with which the peptide elicits a response (% CD69): ≥ 2 h
